Values quoted from earlier work in patent publication US9919015B2, “Composition and method for inhibiting herpesviridae infections” (VIRATEC PTY LTD, priority 2005, dated 2018).
Like-named read-outs stand apart in the source and are kept apart here.

What was measured:
[1] = system: Oral Hairy Leukoplakia (EBV)
[2] = system: recurrent herpes labialis; settings: treatment commenced within 1 hour; Rabon et al. (1989)
herpes zoster = settings: Esmann et al. (1982); Bean et al (1983)
[3] = system: primary herpetic gingivostomatitis; settings: Primary Herpetic Stomatitis
[4] = system: recurrent genital herpetic infection; settings: for healing rate, oral acyclovir: Nilsen et al. (1982); for healing rate, topical acyclovir: Corey et al. (1982)

## Nc1nc2c(ncn2COCCO)c(=O)[nH]1 [Acyclovir, acyclovir]
[1]; oral acyclovir, after 10 days, Resnick et al (1988)
  response, subjects: 5/6
[1]; Herbst et al. (1989), Resnick et al (1988)
  response time with oral acyclovir: 10-20 days - oral
[1]; Herbst et al. (1989), Resnick et al (1988), listed as acyclovir
  response time with oral acyclovir: 10 to 20 days
[1]; systemic acyclovir, after 20 days, Herbst et al. (1989)
  resolution of OHL, subjects: 12/14
[2]
  complete healing with acyclovir: 7 to 8 days
  time to analgesia with acyclovir: 1 to 2 days
Herpes zoster
  time to initial crusting with acyclovir: 2 to 3 days
[3]
  Expected healing time Acyclovir (upper end): ≤ 4 weeks
[3]; treated symptomatically or with acyclovir, listed as acyclovir
  Expected healing time Acyclovir: 10 to 28 days
[4]
  healing rate, oral acyclovir: 5 days oral
  healing rate, topical acyclovir: 7.4 days topical
[4]; listed as acyclovir
  healing rate, oral acyclovir: 5 days
  healing rate, topical acyclovir: 7.4 days
